In assay [1] the test system is HBV 3.5 kb, 2.4/2.1 kb transcripts. Briefly: HBV RNA in HepG2.2.15 cells, Northern blot hybridization. The format is cell-based, Hepatitis B virus. Particulars: for EC50: Hepatitis B virus, 144 h, read-out: EC50 for the 3.5 kb transcript. Here is the method: Southern blot hybridization was used to measure the effects of compounds on HBV DNA. Total DNA from cells was extracted using Dneasy Tissue kit (Qiagen Inc. Valencia, Calif.) and separated on a 0.8% agarose gel. Separated DNA was transferred to a Hybond-N+membrane (Amersham Pharmacia Biotech Inc. Piscataway, N.J.). Inhibition of viral DNA replication was assessed by comparison of the replicative HBV DNA from drug-treated versus untreated cultures using hybridization of the membrane with a [α-^32P] dCTP labeled whole HBV DNA probe followed by autoradiography. Quantitative densitometry was performed on a Molecular Dynamics Densitometer (Amersham Pharmacia Biotech Inc. Piscataway, N.J.) using ImageQuaNT image analysis software. The integrated HBV genome was used as the internal control to normalize the amount of DNA loaded. Northern blot hybridization was used to measure the effects of the compounds on HBV RNA. Total intracellular RNA was extracted from cells using Rneasy kit (Qiagen Inc. Valencia, Calif.). RNA was separated in a 1.2% formaldehyde agarose gel and transferred to a Hybond-N+ membrane (Amersham Pharmacia Biotech Inc. Piscataway, N.J.). The membrane was hybridized with the same probe mentioned above at 65° C. followed by autoradiography. GAPDH RNA level was used as an internal control to normalize the amount of RNA loaded. The decrease of HBV core protein expression was assessed by western blot. A cellular crude extract of […] cells was separated on a 12% SDS-PAGE gel and transferred onto a nitrocellulose membrane (Bio-rad Laboratories, Hercules, Calif.). Anti-HBV core antibody (DAKO Corp. Carpinteria, Calif.) and anti rabbit IgG secondary antibody (Sigma. St. Louis, Mo.) were added. Actin protein level was used as the internal control.
Since helioxanthin and its derivatives are a unique class of chemical with anti-HBV activity, the mechanism of HBV inhibition was examined by first assessing their impact on HBV mRNA. The HepG2.2.15 cells treated with these two drugs for 6 days, then a Northern blot analysis on the total cellular RNA was performed with a HBV specific [α-^32P] dCTP labeled probe. […] Lamivudine had no effect on HBV RNA level.

Another assay concerns L526M/M550V (adr) HBV. Nature of the assay: Extracellular HBV DNA in lamivudine-resistant DM2 cells, real-time PCR. The settings on record: Hepatitis B virus, 144 h, read-out: EC50 (μM) L526M/M550V (adr). In kind it is cell-based. From the text: Hep.G2.2.15 is a hepatoblastoma cell line stably transfected with a HBV genome (ayw strain) (Sells et al., 1987, Proc Natl Acad Sci USA. 84 (4):1005-1009). W10, a HepG2 cell line, was transfected with an adr HBV strain (Fu et al., 2000, Antimicrob Agents Chemother 44 (12): 3402-3407; Fu et al., 1999, Biochem Pharmacol. 57 (12): 1351-1359). These cell lines were used to assess the antiviral activity of helioxanthin and 22. Various concentrations of the drugs in minimal essential medium with Earle's salts (MEME) containing 10% fetal bovine serum (FBS) were tested in 6-day-old cultures. The drugs were left in the culture medium for 3 days, then the medium was removed and fresh medium containing the same concentration of the drugs was added. At the end of another 3-day period, the culture medium and cells were harvested to measure the HBV replication level. The Lamivudine resistant cell line DM2 (Fu et al., 2000, Antimicrob Agents Chemother 44 (12): 3402-3407) is also a hepatoblastoma cell line stably transfected with HBV genome (adr strain) which contains the L526M/M550V double mutation. The culture conditions of DM2 are the same as that of HepG.2.2.15.
Quantitative real-time PCR was used to determine the extracellular HBV copy number in the medium of DM2 cells with and without drug treatment. […] Quantification of the copy number was determined by comparing the sample amount to a standard curve generated in each run. […]
W10 and DM2 cells (Fu et al., 2000, Antimicrob Agents Chemother 44 (12): 3402-3407), were used to evaluate the effects of these two compounds on wt HBV (adr strain) and its lamivudine-resistant HBV. […] After a 6-day treatment, the amount of HBV DNA, which was secreted into the medium, was evaluated using real-time PCR (FIG. 3). […] The real-time PCR method was validated by comparing the results of intracellular HBV DNA levels obtained from the Southern blot hybridization analysis to the results from real-time PCR that measured HBV DNA copies in the HepG2.2.15 medium with or without treatment of lamivudine. […]
Background: In qPCR the cycle at which signal appears reflects the starting amount.

The mark [2] stands for this setting: HepG2.2.15 cells, 6 days, Northern blot.

Molecules are shown by their SMILES. Where two headings read alike, the source gives them in different places.

The text below walks through data of patent publication US7754718B2 (priority 2004, dated 2010).

`O=C1OCc2c1cc1ccc3c(c1c2-c1ccc2c(c1)OCO2)OCO3` [Compound 2, 10-Benzo[1,3]dioxol-5-yl-9H-furo[3′,4′:6,7]naphtho[1,2-d][1,3]dioxol-7-one, reference compound]: the “effect on HBV 3.5 kb, 2.4/2.1 kb transcripts (HBV RNA level)” value (shortened to “effect on HBV 3.5 kb”) in assay [1] (HepG2.2.15 cells, 6 days, Northern blot, listed as helioxanthin) is “decreased 3.5 kb, 2.4/2.1 kb HBV transcripts in a dose-dependent manner”. Besides, the results for the EC50 (in assay [1] (setting [2]); with L526M/M550V (adr) HBV) were 90 nM and 0.1 µM, respectively.
Consider `Nc1ccn([C@@H]2CS[C@H](CO)O2)c(=O)n1` [Compound 3TC, (−)-(2R,5S)-1-[2-(hydroxymethyl)oxathiolan-5-yl]cytosine], for which, in assay [1], the “effect on HBV 3.5 kb” value is “no effect”. Further, the EC50 in the assay with L526M/M550V (adr) HBV was more than 3 µM.
With `COc1ccc(-c2c3c(cc4ccc5c(c24)OCO5)C(=O)NC3)cc1OC` [Compound 22, 10-(3,4-Dimethoxy-phenyl)-8,9-dihydro-1,3-dioxa-8-aza-dicyclopenta[a,g]naphthalen-7-one], the “effect on HBV 3.5 kb” value in assay [1] (setting [2]) was “decreased 3.5 kb, 2.4/2.1 kb HBV transcripts in a dose-dependent manner”. For the same compound, the EC50 in assay [1] (setting [2]) is 1000 nM; in the assay on L526M/M550V (adr) HBV it was 0.0003 µM.
